Reference: patent US10508088B2, “Methods using HDAC11 inhibitors” (FORMA Therapeutics, Inc., priority 2016, dated 2019)

Columns and labels:
[1] = system: SET-2 cells; assay: Cell proliferation assay (CCK8); assay type: cell-based; details: Ruxolitinib-resistant SET-2
Description: This example describes inhibition of in vitro cell proliferation with exemplary HDAC11 inhibitors. The effects of selective HDAC11 inhibitors on cell proliferation were measured in cell lines containing the MPN-associated mutations MPL W515L (Ba/F3 MPL W515L) and JAK2 V617F (Ba/F3 JAK2 V617F, HEL 92.1.7, SET-2). HEL 92.1.7 and SET-2 cells were purchased from the ATCC and DSMZ, respectively. Ba/F3 cells overexpressing either MPLW515L or JAK2V617F, which were cytokine independent, were generated by transforming Ba/F3 cells with retroviruses overexpressing either MPL W515L or JAK2V617F. For survival assays, cells were seeded in 96-well plates at the density of 0.1 million/ml with addition of indicated compounds and incubated at 37° C. for 48 h. CCK8 solution (Dojindo, Rockville, Md.) was added and absorbance at 450 nm was measured after 3 hours of incubation. Readings were normalized to dimethylsulfoxide (DMSO)-treated wells.

[2] = system: STAT3 phosphorylation in HEL 92.1.7 cells; assay: STAT3 and STAT5 phosphorylation western blot assay; assay type: cell-based; details: HEL 92.1.7, western blot
Description: (§1) The effects of selective HDAC11 inhibition on STAT3 and […] phosphorylation in HEL 92.1.7 cells were determined by western blot. Cells were treated with HDAC11 inhibitors and lysed in RIPA buffer (Sigma-Aldrich, St. Louis, Mo.) supplemented with protease inhibitors (Roche, Basel, Switzerland) and phosphatase inhibitors (Sigma P5726). Protein concentrations were determined with Pierce BCA protein assay kit (Thermo Fisher Scientific, Waltham, Mass.). Proteins were separated on a 4-12% Bis-Tris gradient electrophoresis gel (Life Technologies, Carlsbad, Calif.) and transferred onto a nitrocellulose membrane. The membrane was then blocked in either 5% nonfat dry milk or 5% BSA followed by incubation with primary antibodies at 4° C. overnight. Antibodies for p-STAT5 (Abcam 32364), STAT5 (Cell Signaling 9358), p-STAT3 (Cell Signaling 9145) and STAT3 (Cell Signaling 9139) were used. β-actin was used as loading control.

[3] = system: STAT5 phosphorylation in HEL 92.1.7 cells; assay: STAT3 and STAT5 phosphorylation western blot assay; assay type: cell-based; details: HEL 92.1.7, western blot
Description: as §1

[4] = system: erythroid cells from MPN patients; assay: Colony formation assay from MPN patient samples; assay type: cell-based, human; details: MPN patient samples (ET; PV Ruxolitinib resistant), scored 12 to 14 days
Description: (§2) To determine the effects of selective HDAC11 inhibition on MPN patient samples, the effects of HDAC11 inhibitors were evaluated in a colony formation assay with erythroid or myeloid cells from MPN patients. Peripheral blood was obtained from MPN patients consented through the Moffitt Cancer Center Total Cancer Care protocol (MCC 14690). Blood was treated with HetaSep™ (STEMCELL Technologies, Inc.) to remove the majority of red blood cells. Peripheral blood mononuclear cells (PBMCs) were isolated by ficoll separation. PBMCs (1-4×105) were then plated in 1 mL of methylcellulose medium containing rhSCF, rhIL-3, and granulocyte-macrophage colony-stimulating factor (rhGM-CSF) (MethoCult™ #H4534; STEMCELL Technologies, Inc.). All drug treated samples contained 0.1% DMSO as the final concentration. Cells were incubated at 37° C. and 5% CO2 in a humidified incubator. Colonies were scored 12 to 14 days after plating.

[5] = system: myeloid cells from MPN patients; assay: Colony formation assay from MPN patient samples; assay type: cell-based, human; details: MPN patient samples (ET; PV Ruxolitinib resistant), scored 12 to 14 days
Description: as §2

[6] = system: H1650 SP cells; assay: Tube formation assay with stem-like side population NSCLC cells; assay type: cell-based; details: H1650 SP cells on Matrigel
Description: The angiogenic tubule assay was performed with the sorted side population cells to analyze vascular mimicry. The H1650 side population cells were sorted as mentioned above and they were further grown on Matrigel (BD Biosciences) to form angiogenic tubule-like structures. 100 μl of thawed Matrigel was layered on the wells of 96-well tissue culture plates and allowed to polymerize at 37° C. for 30 min. Sorted H1650 SP cells were layered (12000 cells/100 μl of Matrigel) on the polymerized matrigel and incubated overnight at 37° C. Tubule formation was assessed under bright field using EVOS FL microscope system and images were acquired with EVOS software (Life Technologies Inc., USA). For the treatment with HDAC11 inhibitors, appropriate concentrations of the compounds were added to the cells when they were seeded on Matrigel for the tubule formation assay.

[7] = system: A549 cells; assay: Cell migration scratch assay; assay type: cell-based
Description: The effects of HDAC11 inhibition on cell migration were determined using a scratch assay. A549 cells (120,000-150,000 cells/2 ml/well) were grown in 6-well tissue culture plates (BD Biosciences). A scratch was made using a sterile 2 μl pipette tip in each well. The 10% FBS containing medium was added to the wells after a wash with DPBS. To assess the effect of the HDAC11 inhibitors on cell migration, the inhibitors were added in the medium at appropriate concentrations. The cells were further incubated at 37° C. The images were taken on Day 0 and after every 24 hours using EVOS FL microscope system and EVOS software (Life Technologies Inc) and the cell migration was compared to the Day 0 of treatment.

[8] = system: H1650 cells co-cultured with primary CAFs; assay: Co-culture assay with cancer cells and cancer associated fibroblasts; assay type: cell-based; details: 1:1 co-culture
Description: (§3) The effects of selective HDAC11 inhibition on cancer cells and cancer associated fibroblasts (CAFs) were determined in a co-culture assay. The cells were first trypsinized and collected in serum containing medium and were further incubated in same media at 37° C. for 15-20 min for recovery. The cells were resuspended in serum free media at 1×10^6 cells/ml density and stained with 10 uM of cytotracker green (Cancer associated fibroblasts) or cytotracker red dye (H1650 cells) (Life Technologies Inc) at 37° C. for 90 min. The stained cells were washed twice with serum free medium to remove excess dye at 1500 rpm for 5 min. The cytotracker green stained CAFs were mixed with cytotracker red stained H1650 cells in 1:1 ratio and grown in 96-well tissue culture plate overnight. The HDAC11 inhibitors were then added to the mixed adhered cells (CAFs+H1650) at appropriate concentrations. The images were taken on Day 0 and after every 24 hours using EVOS FL microscope system and EVOS software (Life Technologies Inc).

[9] = system: primary CAFs from human lung cancer; assay: as above; assay type: cell-based; details: 1:1 co-culture with H1650
Description: as §3

SMILES | growth of SET-2 cell line generated to be Ruxolitinib-resistant [1] | STAT3 phosphorylation [2] | STAT5 phosphorylation [3] | growth of colonies from erythroid cells [4] | growth of colonies from myeloid cells [5] | tubule formation [6] | cell migration [7] | growth of H1650 cells co-cultured with primary CAFs [8] | effects on CAFs [9]
O=C(NO)c1cccc(Nc2nc3cc(Cl)c(Cl)cc3o2)c1 [HDTK010, 3-((5,6-dichlorobenzo[d]oxazol-2-yl)amino)-N-hydroxybenzamide] | inhibited the growth | inhibited | inhibited | reduced the growth of colonies | reduced the growth of colonies | – | – | – | –
O=C(NO)c1cccc2c1C[C@]1(CCN(Cc3ccc(Cl)c(C(F)(F)F)c3)C1=O)C2 [HDTK054, (S)-1′-(4-chloro-3-(trifluoromethyl)benzyl)-N-hydroxy-2′-oxo-1,3-dihydrospiro[indene-2,3′-pyrrolidine]-4-carboxamide] | – | – | – | – | – | inhibited tubule formation | impaired | inhibit the growth | minimal effects
